Measured values reported in patent US6248367A, “Bovine excretion extracts having anticancer and anti-inflammatory activity and process for preparing the same” (Kim; Bok Deuk, priority 1998, dated 2001).

Assay: in vitro
Conditions: rat, erythrocytes
Protocol: Cytotoxicity of the bovine excretion extracts according to the present invention was tested by measuring degree of hemolysis of erythrocytes. To erytlirocytes isolated from rats, the extracts prepared in example 1 were added and then, the mixture was cultivated at a temperature of 37° C. for 30, 60 and 120 minutes, respectively. After centrifugation, 400 μl of medium was taken and then reagent for detection of hemolysis was added thereto. Then, absorbance was read at 540 nm to determine degree of hemolysis. Degree of hemolysis (%) is calculated as follows: [formula]
Erythrocytes treated with menadione (positive control) were measured on degree of hemolysis, for the purpose of comparison with the bovine excretion extracts prepared in example 1. Menadione is a known compound which induce hemolysis of erythrocytes.

Work on `CC1=CC(=O)c2ccccc2C1=O` [menadione, Menadione] yielded a hemolysis at 0 h of 0%, a hemolysis at 0.5 h of 1.6 ± 1.3% and a hemolysis at 1 h of 2.3 ± 0.4%. It also gave a hemolysis at 2 h of 65.3 ± 4.8%.
